ChEMBL document CHEMBL3991601, “The target landscape of clinical kinase drugs” (Science, 2017)
Values belong to the compound of their own block, whether it stands above or below them. Active and inactive are the calls of the source. Rule as the data show it, for most assays here: actives have a measured Kd and inactives only a lower limit.

Assays:
[1] = molecular target: T1, Cytochrome c1, heme protein, mitochondrial (Homo sapiens, UniProt P08574)
T1 sequence (P08574 whole entry): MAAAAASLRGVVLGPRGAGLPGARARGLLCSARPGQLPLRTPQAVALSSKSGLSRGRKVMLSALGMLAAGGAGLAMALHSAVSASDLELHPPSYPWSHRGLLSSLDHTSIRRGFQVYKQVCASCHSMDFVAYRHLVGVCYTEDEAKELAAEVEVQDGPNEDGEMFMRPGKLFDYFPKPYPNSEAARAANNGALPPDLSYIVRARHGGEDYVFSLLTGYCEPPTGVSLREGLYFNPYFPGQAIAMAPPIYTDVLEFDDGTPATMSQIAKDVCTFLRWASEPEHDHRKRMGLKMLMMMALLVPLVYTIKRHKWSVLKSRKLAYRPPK

[2] = molecular target: Glycogen synthase kinase-3 alpha (Homo sapiens, UniProt P49840)
Glycogen synthase kinase-3 alpha, sequence (P49840 whole entry): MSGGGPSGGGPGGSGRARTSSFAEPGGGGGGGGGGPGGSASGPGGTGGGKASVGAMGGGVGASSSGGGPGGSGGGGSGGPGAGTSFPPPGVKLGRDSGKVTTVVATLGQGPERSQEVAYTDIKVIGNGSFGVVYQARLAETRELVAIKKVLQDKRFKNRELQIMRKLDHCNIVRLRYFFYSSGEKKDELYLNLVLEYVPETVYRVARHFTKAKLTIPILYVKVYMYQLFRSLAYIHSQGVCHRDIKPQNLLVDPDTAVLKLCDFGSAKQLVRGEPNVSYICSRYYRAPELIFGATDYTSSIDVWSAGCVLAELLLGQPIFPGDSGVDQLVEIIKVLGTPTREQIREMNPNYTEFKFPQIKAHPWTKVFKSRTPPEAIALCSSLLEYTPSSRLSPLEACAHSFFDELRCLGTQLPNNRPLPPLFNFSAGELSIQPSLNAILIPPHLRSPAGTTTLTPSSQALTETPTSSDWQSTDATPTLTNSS

Insulin receptor = Insulin receptor (Homo sapiens, UniProt P06213)
Insulin receptor, sequence (P06213 28-758 limits assumed): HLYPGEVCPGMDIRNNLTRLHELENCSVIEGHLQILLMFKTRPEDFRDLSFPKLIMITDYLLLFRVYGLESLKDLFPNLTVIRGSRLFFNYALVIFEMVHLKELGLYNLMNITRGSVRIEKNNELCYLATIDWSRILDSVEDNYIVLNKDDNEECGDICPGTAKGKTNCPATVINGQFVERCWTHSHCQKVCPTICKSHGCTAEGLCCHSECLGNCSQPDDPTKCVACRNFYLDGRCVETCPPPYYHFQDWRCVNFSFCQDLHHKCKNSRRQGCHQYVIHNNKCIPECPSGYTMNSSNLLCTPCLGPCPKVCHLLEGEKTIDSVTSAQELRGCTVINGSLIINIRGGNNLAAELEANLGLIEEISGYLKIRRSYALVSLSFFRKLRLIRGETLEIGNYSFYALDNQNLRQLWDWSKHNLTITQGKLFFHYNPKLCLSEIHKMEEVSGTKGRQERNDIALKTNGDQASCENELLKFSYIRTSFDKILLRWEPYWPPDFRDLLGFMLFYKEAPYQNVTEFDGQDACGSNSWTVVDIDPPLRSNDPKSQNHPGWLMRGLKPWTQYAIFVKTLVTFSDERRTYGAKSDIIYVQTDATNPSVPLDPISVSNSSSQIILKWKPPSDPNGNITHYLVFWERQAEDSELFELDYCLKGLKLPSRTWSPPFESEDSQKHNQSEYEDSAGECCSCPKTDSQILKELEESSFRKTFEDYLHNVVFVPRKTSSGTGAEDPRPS
Insulin receptor, sequence (P06213 763-1382 limits assumed): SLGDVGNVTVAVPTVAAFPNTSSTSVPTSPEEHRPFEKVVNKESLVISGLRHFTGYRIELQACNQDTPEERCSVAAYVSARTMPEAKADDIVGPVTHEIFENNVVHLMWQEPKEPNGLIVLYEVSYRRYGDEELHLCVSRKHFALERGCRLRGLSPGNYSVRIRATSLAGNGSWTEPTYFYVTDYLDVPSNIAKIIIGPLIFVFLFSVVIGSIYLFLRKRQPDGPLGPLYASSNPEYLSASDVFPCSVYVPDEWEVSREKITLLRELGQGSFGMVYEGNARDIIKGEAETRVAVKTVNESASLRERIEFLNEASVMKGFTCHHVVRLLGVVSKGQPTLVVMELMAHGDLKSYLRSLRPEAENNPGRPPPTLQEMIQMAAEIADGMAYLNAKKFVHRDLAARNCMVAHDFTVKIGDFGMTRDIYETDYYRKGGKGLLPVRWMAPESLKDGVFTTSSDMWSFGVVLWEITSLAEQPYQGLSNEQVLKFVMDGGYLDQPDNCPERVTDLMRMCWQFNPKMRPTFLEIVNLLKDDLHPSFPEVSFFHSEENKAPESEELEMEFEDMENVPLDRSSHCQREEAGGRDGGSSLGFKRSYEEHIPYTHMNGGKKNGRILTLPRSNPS

[3] = molecular target: T2, Mitogen-activated protein kinase kinase kinase kinase 2 (Homo sapiens, UniProt Q12851)
T2 sequence (Q12851 whole entry): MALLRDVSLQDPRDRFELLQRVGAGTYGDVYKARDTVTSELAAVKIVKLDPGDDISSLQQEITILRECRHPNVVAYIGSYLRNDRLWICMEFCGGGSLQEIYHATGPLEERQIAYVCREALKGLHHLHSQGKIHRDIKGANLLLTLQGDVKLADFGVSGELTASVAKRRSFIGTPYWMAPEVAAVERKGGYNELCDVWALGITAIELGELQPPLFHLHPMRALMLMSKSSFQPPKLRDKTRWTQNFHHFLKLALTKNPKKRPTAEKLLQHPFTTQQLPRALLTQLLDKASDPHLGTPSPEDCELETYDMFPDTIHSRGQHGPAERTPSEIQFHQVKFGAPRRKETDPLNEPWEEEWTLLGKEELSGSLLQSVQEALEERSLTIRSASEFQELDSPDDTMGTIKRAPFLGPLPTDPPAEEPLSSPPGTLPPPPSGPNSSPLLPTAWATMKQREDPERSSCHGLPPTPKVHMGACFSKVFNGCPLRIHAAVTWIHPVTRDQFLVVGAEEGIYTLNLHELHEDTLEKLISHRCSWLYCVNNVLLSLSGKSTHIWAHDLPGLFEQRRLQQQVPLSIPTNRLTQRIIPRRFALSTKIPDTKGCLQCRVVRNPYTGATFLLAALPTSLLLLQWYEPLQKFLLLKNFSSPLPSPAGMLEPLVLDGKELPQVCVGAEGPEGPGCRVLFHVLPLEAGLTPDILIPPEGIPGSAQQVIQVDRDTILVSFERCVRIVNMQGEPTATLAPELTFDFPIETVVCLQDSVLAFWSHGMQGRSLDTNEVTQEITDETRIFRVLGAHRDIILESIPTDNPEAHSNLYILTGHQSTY

[4] = molecular target: T3, Bifunctional phosphoribosylaminoimidazole carboxylase/phosphoribosylaminoimidazole succinocarboxamide synthetase (Homo sapiens, UniProt P22234)
T3 sequence (P22234 whole entry): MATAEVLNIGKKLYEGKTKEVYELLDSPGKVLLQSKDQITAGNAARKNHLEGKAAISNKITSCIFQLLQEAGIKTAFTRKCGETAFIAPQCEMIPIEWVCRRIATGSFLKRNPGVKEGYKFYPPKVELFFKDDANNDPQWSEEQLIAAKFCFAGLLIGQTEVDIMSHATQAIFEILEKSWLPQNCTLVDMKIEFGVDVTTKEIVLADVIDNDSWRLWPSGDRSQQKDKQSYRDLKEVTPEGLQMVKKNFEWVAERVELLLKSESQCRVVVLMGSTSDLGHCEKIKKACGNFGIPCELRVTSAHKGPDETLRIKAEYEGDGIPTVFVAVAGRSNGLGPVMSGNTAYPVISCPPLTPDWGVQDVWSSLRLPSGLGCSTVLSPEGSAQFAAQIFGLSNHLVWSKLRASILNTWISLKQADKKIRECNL

[5] = molecular target: Rho-associated protein kinase 2 (Homo sapiens, UniProt O75116)
Rho-associated protein kinase 2, sequence (O75116 whole entry): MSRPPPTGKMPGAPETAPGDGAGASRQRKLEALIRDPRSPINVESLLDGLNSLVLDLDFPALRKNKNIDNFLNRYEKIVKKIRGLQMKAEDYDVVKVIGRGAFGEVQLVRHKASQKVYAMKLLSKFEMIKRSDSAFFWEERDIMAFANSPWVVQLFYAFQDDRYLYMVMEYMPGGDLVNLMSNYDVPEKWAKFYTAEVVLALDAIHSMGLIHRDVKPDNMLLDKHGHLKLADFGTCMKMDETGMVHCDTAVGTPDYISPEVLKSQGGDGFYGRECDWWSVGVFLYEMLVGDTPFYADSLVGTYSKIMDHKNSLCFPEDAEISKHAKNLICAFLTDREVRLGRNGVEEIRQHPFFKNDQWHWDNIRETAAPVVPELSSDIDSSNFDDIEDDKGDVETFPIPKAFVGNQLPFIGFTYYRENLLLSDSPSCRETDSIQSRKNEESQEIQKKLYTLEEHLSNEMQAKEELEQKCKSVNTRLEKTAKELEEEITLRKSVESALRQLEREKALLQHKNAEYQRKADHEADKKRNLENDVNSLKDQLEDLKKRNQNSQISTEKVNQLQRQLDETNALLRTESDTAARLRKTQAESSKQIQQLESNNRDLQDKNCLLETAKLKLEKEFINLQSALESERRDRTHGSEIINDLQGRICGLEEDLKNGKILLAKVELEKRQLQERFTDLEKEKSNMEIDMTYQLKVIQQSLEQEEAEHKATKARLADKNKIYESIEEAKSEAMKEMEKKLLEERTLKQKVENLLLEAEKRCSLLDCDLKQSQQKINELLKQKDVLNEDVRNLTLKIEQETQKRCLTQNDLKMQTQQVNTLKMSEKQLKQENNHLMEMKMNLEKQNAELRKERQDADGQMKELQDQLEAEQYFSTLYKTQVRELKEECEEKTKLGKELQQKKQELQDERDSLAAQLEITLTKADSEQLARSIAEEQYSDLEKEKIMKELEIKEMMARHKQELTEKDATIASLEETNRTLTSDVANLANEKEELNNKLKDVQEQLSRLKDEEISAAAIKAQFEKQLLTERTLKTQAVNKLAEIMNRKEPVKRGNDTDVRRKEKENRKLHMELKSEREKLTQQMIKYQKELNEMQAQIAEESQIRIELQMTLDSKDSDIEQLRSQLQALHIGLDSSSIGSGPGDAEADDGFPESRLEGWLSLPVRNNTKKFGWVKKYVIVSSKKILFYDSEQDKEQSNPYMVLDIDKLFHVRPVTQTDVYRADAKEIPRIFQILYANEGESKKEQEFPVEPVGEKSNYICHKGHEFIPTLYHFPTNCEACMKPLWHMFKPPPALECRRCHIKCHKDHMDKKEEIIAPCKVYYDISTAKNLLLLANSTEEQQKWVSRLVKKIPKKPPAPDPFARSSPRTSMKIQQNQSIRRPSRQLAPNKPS

[6] = molecular target: T4, Serine/threonine-protein kinase STK11 (Homo sapiens, UniProt Q15831)
T4 sequence (Q15831 whole entry): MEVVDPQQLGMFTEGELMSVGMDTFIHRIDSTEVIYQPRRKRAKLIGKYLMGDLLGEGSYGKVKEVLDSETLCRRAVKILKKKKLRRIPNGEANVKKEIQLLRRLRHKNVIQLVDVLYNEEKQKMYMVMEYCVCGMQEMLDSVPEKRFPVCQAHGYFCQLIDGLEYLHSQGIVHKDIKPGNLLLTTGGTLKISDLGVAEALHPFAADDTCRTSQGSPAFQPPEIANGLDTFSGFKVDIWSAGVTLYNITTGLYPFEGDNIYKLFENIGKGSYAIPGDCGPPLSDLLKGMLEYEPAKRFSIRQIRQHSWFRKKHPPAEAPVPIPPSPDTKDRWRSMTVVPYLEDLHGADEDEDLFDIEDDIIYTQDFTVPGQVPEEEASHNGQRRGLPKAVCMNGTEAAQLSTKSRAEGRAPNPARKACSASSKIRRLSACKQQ

[7] = molecular target: T5, EKC/KEOPS complex subunit TP53RK (Homo sapiens, UniProt Q96S44)
T5 sequence (Q96S44 whole entry): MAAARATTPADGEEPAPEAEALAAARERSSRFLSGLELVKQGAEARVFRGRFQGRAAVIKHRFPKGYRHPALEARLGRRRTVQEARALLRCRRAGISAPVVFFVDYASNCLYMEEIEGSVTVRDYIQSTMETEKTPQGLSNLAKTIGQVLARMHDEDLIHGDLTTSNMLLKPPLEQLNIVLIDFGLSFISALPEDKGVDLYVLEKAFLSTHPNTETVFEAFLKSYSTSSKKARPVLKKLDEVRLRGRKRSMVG

[8] = molecular target: T6, Serine/threonine-protein kinase ULK3 (Homo sapiens, UniProt Q6PHR2)
T6 sequence (Q6PHR2 whole entry): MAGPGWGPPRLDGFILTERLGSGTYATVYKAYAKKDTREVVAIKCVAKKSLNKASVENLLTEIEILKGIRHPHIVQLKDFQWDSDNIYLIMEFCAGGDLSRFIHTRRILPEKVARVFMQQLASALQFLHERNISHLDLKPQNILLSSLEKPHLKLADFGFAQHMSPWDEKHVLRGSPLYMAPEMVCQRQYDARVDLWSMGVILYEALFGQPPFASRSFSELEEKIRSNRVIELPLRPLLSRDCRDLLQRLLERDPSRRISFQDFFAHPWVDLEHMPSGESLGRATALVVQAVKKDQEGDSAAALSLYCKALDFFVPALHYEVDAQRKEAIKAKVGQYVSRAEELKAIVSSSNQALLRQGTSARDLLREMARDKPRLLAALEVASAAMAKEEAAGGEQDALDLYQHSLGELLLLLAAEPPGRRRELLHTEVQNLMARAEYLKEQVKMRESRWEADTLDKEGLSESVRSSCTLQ
Also: in the data inactive means no Kd found up to 30 µM.

- Kd [1]: > 30 µM (inactive)
- Kd [2]: > 30 µM (inactive)
- Kd (Insulin receptor): > 30 µM (inactive)
- Kd [3]: > 30 µM (inactive)
- Kd [4]: > 30 µM (inactive)
- Kd [5]: > 30 µM (inactive)
- Kd [6]: > 30 µM (inactive)
- Kd [7]: > 30 µM (inactive)
- Kd [8]: > 30 µM (inactive)
Compound: COc1cccc(Nc2ncnn3ccc(CN4CC[C@@H](N)[C@H](O)C4)c23)c1 [BMS-690514]

- Kd [1]: > 30 µM (inactive)
- Kd [2]: > 30 µM (inactive)
- Kd (Insulin receptor): > 30 µM (inactive)
- Kd [3]: > 30 µM (inactive)
- Kd [4]: > 30 µM (inactive)
- Kd [5]: > 30 µM (inactive)
- Kd [6]: > 30 µM (inactive)
- Kd [7]: > 30 µM (inactive)
- Kd [8]: > 30 µM (inactive)
Compound: O=C(Nc1ccc(OC(F)(F)F)cc1)c1sccc1NCc1ccnc2ccccc12 [OSI-930]

- Kd [1]: > 30 µM (inactive)
- Kd [2]: > 30 µM (inactive)
- Kd (Insulin receptor): > 30 µM (inactive)
- Kd [3]: > 30 µM (inactive)
- Kd [4]: > 30 µM (inactive)
- Kd [5]: > 30 µM (inactive)
- Kd [6]: 0.714 µM
- Kd [7]: > 30 µM (inactive)
- Kd [8]: > 30 µM (inactive)
Compound: Cc1cc(Nc2nc(N[C@@H](C)c3ncc(F)cn3)ncc2Cl)n[nH]1 [AZD-1480]

The next lines start with the compound.

Compound: C=CC(=O)Nc1cccc(Nc2nc(Nc3ccc(N4CCN(C(C)=O)CC4)cc3OC)ncc2C(F)(F)F)c1 [ROCILETINIB]
- Kd [1]: > 30 µM (inactive)
- Kd [2]: > 30 µM (inactive)
- Kd (Insulin receptor): > 30 µM (inactive)
- Kd [3]: > 30 µM (inactive)
- Kd [4]: > 30 µM (inactive)
- Kd [5]: > 30 µM (inactive)
- Kd [6]: > 30 µM (inactive)
- Kd [7]: > 30 µM (inactive)
- Kd [8]: > 30 µM (inactive)

Compound: O=C(NOC[C@H](O)CO)c1ccc(F)c(F)c1Nc1ccc(I)cc1F [MIRDAMETINIB]
- Kd [1]: > 30 µM (inactive)
- Kd [2]: > 30 µM (inactive)
- Kd (Insulin receptor): > 30 µM (inactive)
- Kd [3]: > 30 µM (inactive)
- Kd [4]: > 30 µM (inactive)
- Kd [5]: > 30 µM (inactive)
- Kd [6]: > 30 µM (inactive)
- Kd [7]: > 30 µM (inactive)
- Kd [8]: > 30 µM (inactive)

Compound: O=C(NC[C@H](O)CO)c1ccncc1Nc1ccc(I)cc1F [PIMASERTIB]
- Kd [1]: > 30 µM (inactive)
- Kd [2]: > 30 µM (inactive)
- Kd (Insulin receptor): > 30 µM (inactive)
- Kd [3]: > 30 µM (inactive)
- Kd [4]: > 30 µM (inactive)
- Kd [5]: > 30 µM (inactive)
- Kd [6]: > 30 µM (inactive)
- Kd [7]: > 30 µM (inactive)
- Kd [8]: > 30 µM (inactive)

Compound: Cc1cc(-c2cc(OC(=O)c3ccccc3)ccc2Cl)cc2nnc(Nc3ccc(OCCN4CCCC4)cc3)nc12 [TG100-801]
- Kd [1]: > 30 µM (inactive)
- Kd [2]: > 30 µM (inactive)
- Kd (Insulin receptor): > 30 µM (inactive)
- Kd [3]: > 30 µM (inactive)
- Kd [4]: > 30 µM (inactive)
- Kd [5]: > 30 µM (inactive)
- Kd [6]: > 30 µM (inactive)
- Kd [7]: > 30 µM (inactive)
- Kd [8]: > 30 µM (inactive)

Compound: NC[C@@](O)(c1ccc(Cl)cc1)c1ccc(-c2cn[nH]c2)cc1 [AT-13148]
- Kd [1]: > 30 µM (inactive)
- Kd [2]: > 30 µM (inactive)
- Kd (Insulin receptor): > 30 µM (inactive)
- Kd [3]: > 30 µM (inactive)
- Kd [4]: > 30 µM (inactive)
- Kd [5]: 0.026 µM (active)
- Kd [6]: > 30 µM (inactive)
- Kd [7]: > 30 µM (inactive)
- Kd [8]: > 30 µM (inactive)

Compound: C=CCN(/C=C1/C(=O)O[C@H](COC)[C@@]2(C)C1=C(O)C(=O)C1=C2[C@H](OC(C)=O)C[C@]2(C)C(=O)CC[C@@H]12)CC=C [SONOLISIB]
- Kd [1]: > 30 µM (inactive)
- Kd [2]: > 30 µM (inactive)
- Kd (Insulin receptor): > 30 µM (inactive)
- Kd [3]: > 30 µM (inactive)
- Kd [4]: > 30 µM (inactive)
- Kd [5]: > 30 µM (inactive)
- Kd [6]: > 30 µM (inactive)
- Kd [7]: > 30 µM (inactive)
- Kd [8]: > 30 µM (inactive)

Compound: COc1cc2nccc(Oc3ccc(NC(=O)C4(C(=O)Nc5ccc(F)cc5)CC4)cc3)c2cc1OC [CABOZANTINIB]
- Kd [1]: > 30 µM (inactive)
- Kd [2]: > 30 µM (inactive)
- Kd (Insulin receptor): > 30 µM (inactive)
- Kd [3]: > 30 µM (inactive)
- Kd [4]: > 30 µM (inactive)
- Kd [5]: > 30 µM (inactive)
- Kd [6]: > 30 µM (inactive)
- Kd [7]: > 30 µM (inactive)
- Kd [8]: > 30 µM (inactive)

Compound: C[C@@H]1COC(Nc2ccc3ncnc(Nc4ccc(OCc5nccs5)c(Cl)c4)c3c2)=N1 [VARLITINIB]
- Kd [1]: > 30 µM (inactive)
- Kd [2]: > 30 µM (inactive)
- Kd (Insulin receptor): > 30 µM (inactive)
- Kd [3]: > 30 µM (inactive)
- Kd [4]: > 30 µM (inactive)
- Kd [5]: > 30 µM (inactive)
- Kd [6]: > 30 µM (inactive)
- Kd [7]: > 30 µM (inactive)
- Kd [8]: > 30 µM (inactive)

Compound: CCc1cc2c(cc1N1CCC(N3CCOCC3)CC1)C(C)(C)c1[nH]c3cc(C#N)ccc3c1C2=O [ALECTINIB]
- Kd [1]: > 30 µM (inactive)
- Kd [2]: > 30 µM (inactive)
- Kd (Insulin receptor): > 30 µM (inactive)
- Kd [3]: > 30 µM (inactive)
- Kd [4]: > 30 µM (inactive)
- Kd [5]: > 30 µM (inactive)
- Kd [6]: > 30 µM (inactive)
- Kd [7]: > 30 µM (inactive)
- Kd [8]: > 30 µM (inactive)

Compound: FC(F)(F)c1ccc(CNc2ccc(Cc3c[nH]c4ncc(Cl)cc34)cn2)cn1 [PEXIDARTINIB]
- Kd [1]: > 30 µM (inactive)
- Kd [2]: > 30 µM (inactive)
- Kd (Insulin receptor): > 30 µM (inactive)
- Kd [3]: > 30 µM (inactive)
- Kd [4]: > 30 µM (inactive)
- Kd [5]: > 30 µM (inactive)
- Kd [6]: > 30 µM (inactive)
- Kd [7]: > 30 µM (inactive)
- Kd [8]: > 30 µM (inactive)
